Results: article PMC12009420, “Dynamically chiral phosphonic acid-type metallo-β-lactamase inhibitors” (Communications Chemistry, 2025)

Assays:
VIM-2 [1] = biological target: T1, VIM-2 (Escherichia coli, UniProt Q5U7L7); test: Enzyme steady state kinetic studies (inhibitor 5g and VIM-2); type: biochemical; conditions: for Ki / Vmax: nitrocefin
Protocol: Enzyme steady state kinetic studies were performed to determine the mechanism of inhibition using inhibitor 5g and VIM-2 (Section 7, Supplementary Information). […] Assays were conducted in triplicates on a 96 well plate. Absorbance was measured at 482 nm using a SpectraMax 190 plate reader. Solutions of 300 μL consisting of buffer, purified enzyme (0.3 nM VIM-2), inhibitor 5g and reporter substrate nitrocefin with final 2.5% DMSO were incubated in triplicates on a 96 well plate for 5 min at 30 °C. Buffer solution consisted of 50 mM HEPES pH 7.2, 50 μM ZnSO4 and 0.4 mg/ml bovine serum albumin.
7. Enzyme kinetic studies
Enzyme steady state kinetic studies were performed to determine the mechanism of inhibition using inhibitor 5g and VIM-2. Km’, Ki and Vmax values were determined (Table S6).
For data analysis, SimFit software was used to fit the initial reaction velocities (v₀) to a Michaelis-Menten (1:1) model (Figure S40a). […]
Table S6. Kinetic parameters (Km’, Ki and vmax values) of inhibitor 5g against VIM-2 using nitrocefin as reporter substrate.
Figure S40. a, Michaelis-Menten fitting of the substrate concentration dependence of initial reaction velocities. b, Double reciprocal plot of the data in a, for VIM-2 in the absence and presence of inhibitor 5g at two concentrations (36 μM and 72 μM) using nitrocefin as substrate. [I] is the concentration of inhibitor 5g.

GIM-1 [2] = biological target: T2, GIM-1 (Pseudomonas aeruginosa, UniProt Q704V1); test: Enzymatic metallo-β-lactamase assay on purified GIM-1; type: biochemical; conditions: approximated from Dixon plots (1/v vs [I]) at one constant substrate concentration; ± SE; read-out: Estimated inhibition constant Ki GIM-1
GIM-1 [3] = biological target: T2, GIM-1; test: as above; type: biochemical
Protocol: (§1) A few inhibitors were tested up to 1600 μM to ensure nearly complete inhibition. Solutions of 100 μL consisting of buffer, purified enzyme (1 nM for GIM-1 and VIM-2, 5 nM for NDM-1), inhibitor and reporter substrate nitrocefin (15 μM for VIM-2, 2 μM for GIM-1) or imipenem (30 μM for NDM-1) were incubated in triplicates on a 96 well plate for 5 min at 25 °C. Buffer solution consisted of 50 mM HEPES pH 7.2, 50 μM ZnSO4 and 0.4 mg/ml bovine serum albumine. Inhibitors were dissolved in DMSO but diluted to assure <2% DMSO in measured assay. Absorbance was measured at 482 nm (nitrocefin) and 300 nm (imipenem) on a SpectraMax M4 spectrophotometer. The initial velocity at each inhibitor concentration was analyzed in GraphPad Prism v9.3.1 and fitted to dose-response curves by non-linear regression (log [inhibitor] vs response) used to calculate IC50 (Supplementary Tables S2–5).

[4] = Long term stability in buffer with 2.5% DMSO (LC-MS); type: physicochemical; conditions: 20 mM KPO4, 0.1 mM ZnCl2, pH 7.0 + 2.5% DMSO; LC-MS 254 nm
Source text: Reagents, reactants, solvents and drying agents for synthesis, work-up and purification were purchased from commercial vendors (Sigma-Aldrich, VWR, Merck, Fluorochem, Thermo Fisher Scientific, Solveco), and if not stated otherwise they were used without further purification. Reactions and long term stability of the final compounds in buffer were monitored using LC-MS (Agilent 1260 Infinity II) equipped with an ESI-Q detector (Infinitylab LC-MSD) using Agilent InfinityLab Poroshell 120 C18 columns (2.7 μm, ϕ 2.1 mm L 50 mm or 2.7 μm, ϕ 4.6 mm L 50 mm). The intermediates were purified using VWR silica gel 60 (40–63 μm) with a Biotage Isolera One flash column chromatography instrument. The final products were purified with preparative RP-HPLC (VWR LaPrep P110) with single wavelength detection (254 nm), using a Kinetex C8 column (5 μm, 100 Å, ϕ 21.2 mm L 250 mm) and gradients of CH3CN/H2O + 0.1% formic acid as the mobile phase at a 10 mL/min flow rate. Analytical HPLC data were acquired on a VWR LaChrome ELITE system using an ACE3 C8 (3 μm, 300 Å, ϕ 3.0 mm L 100 mm) or a Kinetex C18 columns (5 μm, 100 Å, ϕ 3.0 mm L 150 mm). NMR spectra were recorded on a Varian Agilent MR400-DD2 400 MHz spectrometer equipped with a OneNMR probe, Bruker Avance Neo 500 MHz spectrometer equipped with a cryogenic TXO probe, or a Bruker Avance Neo 600 MHz spectrometer equipped with a TCI cryogenic probe. The chemical shifts are reported using the residual solvent signal as an indirect reference to TMS.
4. Long term stability of the final compounds in buffer with 2.5% DMSO
The long term stability of the final compounds in buffer (20 mM KPO4, 0.1 mM ZnCl2, pH 7.0 + 2.5% DMSO) were monitored using LC-MS (Agilent 1260 Infinity II) equipped with an ESI-Q detector (Infinitylab LC-MSD) using Agilent InfinityLab Poroshell 120 C18 column (2.7 μm, ϕ 4.6 mm L 50 mm) at 254 nm with a 7 min long gradient method (5% to 95% CH3CN) of CH3CN/H2O + 0.1% formic acid as the mobile phase at a 1.0 mL/min flow rate. The samples were measured right after dissolving them in buffer, and after 1 month of keeping the same samples dissolved in the same buffer. The main peaks (> 95%) and impurities with > 1% are […]
Figure S14. Compound 5a right after dissolving it in buffer.
Figure S15. Compound 5a kept in buffer for 1 month. […]

VIM-2 [5] = biological target: T1, VIM-2; test: Enzymatic metallo-β-lactamase assay on purified VIM-2; type: biochemical
Protocol: as §1

T2 sequence (Q704V1 entry or part of it): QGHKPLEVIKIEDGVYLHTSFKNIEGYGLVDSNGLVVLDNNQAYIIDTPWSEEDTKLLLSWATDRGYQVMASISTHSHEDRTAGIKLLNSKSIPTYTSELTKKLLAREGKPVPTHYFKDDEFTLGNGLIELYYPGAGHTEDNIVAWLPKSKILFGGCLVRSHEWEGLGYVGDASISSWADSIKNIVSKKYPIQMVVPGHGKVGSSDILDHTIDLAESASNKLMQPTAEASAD

O=C(NC(c1ccccc1O)P(=O)(O)O)c1scc2c1CCCC2 (centres unmarked) [5g]
Ki (VIM-2 [1]; Michaelis-Menten fit and Lineweaver-Burk plot, 30 °C): 36 ± 3.3 µM
Ki (VIM-2 [1]; [I] 36 μM): 31.3 µM
Ki (VIM-2 [1]; [I] 72 μM): 40.7 µM
inhibition mode (VIM-2 [1]; Michaelis-Menten model and Lineweaver-Burk plot): competitive inhibition
Vmax (VIM-2 [1]; [I] 36 μM): 50.0 ΔA/min
Vmax (VIM-2 [1]; [I] 72 μM): 47.0 ΔA/min
Ki (GIM-1 [2]): 113 ± 66 µM
logIC50 GIM-1 (GIM-1 [3]; log of IC50, ± SEM of logIC50): 1.33 ± 0.11 μM
IC50 (GIM-1 [3]; purified enzyme 1 nM, nitrocefin 2 μM, pH 7.2, 25 °C): 21 µM
main peak Area% kept in buffer for 1 month [4]: 98.05%
main peak Area% right after dissolving in buffer [4]: 98.21%
Ki (VIM-2 [5]; approximated from Dixon plots (1/v vs [I]) at one constant substrate concentration, ± SE, read-out: Estimated inhibition constant Ki VIM-2): 43 ± 15 µM
logIC50 VIM-2 (VIM-2 [5]; log of IC50, ± SEM of logIC50): 1.06 ± 0.04 μM
IC50 (VIM-2 [5]; purified enzyme 1 nM, nitrocefin 15 μM, pH 7.2, 25 °C): 12 µM
